Entries after “also recorded” stand apart in the source; their conditions may differ.
Legend:
Assay type in all cases: cell-based
[1] = system: TP53 null MCF10A cells expressing a doxycycline-inducible HORMAD1 construct (3D spheroids); assay: 3D spheroid viability (cell titre glo) in TP53 null MCF10A cells with inducible HORMAD1; conditions: increasing doses, 14 days post drugging
Experimental: TP53 null MCF10A cells expressing a doxycycline-inducible HORMAD1 construct were treated with doxycycline or vehicle. Cells were grown in 3D spheroid cultures. Following doxycycline induction, increasing doses of BUB1 inhibitor BAY-1816032 was added to the cells. 14 days post drugging, cell viability was estimated using cell titre glo reagent. Surviving fractions were calculated (normalised to vehicle treated cells). Data is from 3 replicas, analysed using 2-way ANOVA.

[2] = system: MDA-157, MDA-468, MDA436 TNBC cell-lines and MCF10A, MTSV1 non-transformed breast cell-lines; assay: SRB viability in HORMAD1-positive TNBC cell-lines versus non-transformed breast cell-lines; conditions: increasing doses, 10-14 days post drugging
Experimental: To confirm that endogenous HORMAD1 expression in cancer cells (as opposed to transgene-driven HORMAD1 expression) also causes BUB1 inhibitor sensitivity, increasing doses of BUB1 inhibitor was added to 3 HORMAD1-positive triple-negative breast cancer cell-lines (TNBC) and 2 HORMAD1-negative non-transformed breast cell-lines.
Three HORMAD1 positive TNBC cell-lines (MDA-157, MDA-468, MDA436) and two non-transformed breast cell-lines (MCF10A and MTSV1) were treated with increasing doses of BUB1 inhibitor BAY-1816032. 10-14 days post drugging, cell viability was estimated by staining cells with SRB and measuring absorbance. Surviving fractions were calculated (normalised to vehicle treated cells). Data is from 3 replicas, analysed using 2-way ANOVA.

[3] = system: SUM159 cells expressing a doxycycline-inducible HORMAD1 construct; assay: Clonogenic survival assay (SRB) in SUM159 cells with doxycycline-inducible HORMAD1; conditions: increasing doses, 10-14 days, normalised to vehicle
Experimental: Cell confluence was analysed every 6 hours for 10 days, using incucyte software. Data are from 3 biological replicates and analysed using a two-way ANOVA. […] RPE1 cells expressing a doxycycline-inducible HORMAD1 expression construct were exposed to doxycycline or vehicle (H2O) and were exposed to 20 nM of the Aurora B inhibitor, AZD1152-HQPA. Cell confluence was analysed every 6 hours for 10 days, using incucyte software. Data are from 3 biological replicates and analysed using a two-way ANOVA. […] 7-10 days post drugging, cells were fixed, stained with SRB, and colonies were counted using Cell Profiler. […] 10 days post drugging, cells were fixed, stained with SRB, and colonies were counted using Cell Profiler. […] 7-10 days post drugging, cells were fixed, stained with SRB, and colonies were counted using Cell Profiler. […] 10 days post drugging, cells were fixed, stained with SRB, and colonies were counted using Cell Profiler.
RPE1 and SUM159 cells expressing a doxycycline-inducible HORMAD1 construct were treated with doxycycline or vehicle. […] Surviving fractions were calculated (normalised to vehicle treated cells). […] Data from 3 replicas was analysed using 2-way ANOVA. […] Surviving fractions were calculated (normalised to vehicle treated cells). Data from 4 replicas was analysed using 2-way ANOVA. […]

[4] = system: RPE1 cells expressing a doxycycline-inducible HORMAD1 expression construct; assay: Mitotic slippage by time-lapse microscopy in nocodazole-arrested RPE1 cells; conditions: 300 nM nocodazole arrest, then 100-200 nM reversine, 50 nM BOS172722 or AZD1152-HQPA
Experimental: A. Diagram of experimental outline. Cells were exposed to doxycycline for 3 days, arrested in mitosis using 300 nM nocodazole or 100 nM Paclitaxel. Mitotic cells were filmed every 4 minutes for 1200 minutes, and the time cells remained arrested in mitosis before exiting via mitotic slippage was assessed. […] RPE1 cells expressing a doxycycline-inducible HORMAD1 cDNA expression construct were exposed to doxycycline or vehicle (H2O) for three days at which point cells were exposed to 300 nM nocodazole and filmed every 4 minutes using time-lapse microscopy. The time individual cells remained arrested in mitosis was quantified and presented as the % of cells arrested in mitosis at each time point. Data reflects a total of 125 cells from 3 biological repeats and was analysed using Mantel-Cox test. C. […] The time individual cells remained arrested in mitosis was quantified and presented as the % of cells arrested in mitosis at each time point. Data reflects a total of 125 cells from 3 biological repeats and was analysed using Mantel-Cox test. […] H1299 cells expressing two individual, doxycycline-inducible, shRNA particles targeting HORMAD1 as well as a non-targeting control were grown for three days in the presence of doxycycline at which point cell lysates were generated and analysed by SDS-PAGE and western blotting using anti-HORMAD1 and anti-β-ACTIN antibodies. […] The time individual cells remained arrested in mitosis was quantified and presented as the % of cells arrested in mitosis at each time point. Data reflects a total of 90 cells from 3 biological repeats and was analysed using Mantel-Cox test with Bonferonni correction. […] Mitotic cells were filmed every 2 minutes for 400 minutes, and the time taken before cells exited mitosis via mitotic slippage was assessed. […] The time individual cells remained arrested in mitosis was quantified and presented as the % of cells arrested in mitosis at each time point. […] The time individual cells remained arrested in mitosis was quantified and presented as the % of cells arrested in mitosis at each time point. […]

| Compound | growth inhibition of HORMAD1 expressing versus HORMAD1-negative spheroids [1] | surviving fraction, HORMAD1-positive TNBC cell-lines compared with HORMAD1-negative non-transformed cell-lines [2] | clonogenic survival / sensitivity of HORMAD1 expressing versus HORMAD1-negative SUM159 cells [3] | mitotic slippage / mitotic exit in HORMAD1 induced RPE1 cells [4] |
| --- | --- | --- | --- | --- |
| COc1cnccc1Nc1nc(-c2nn(Cc3c(F)cc(OCCO)cc3F)c3ccccc23)ncc1OC [BAY-1816032] | more effectively inhibited | significant differences | – | – |
| CCN(CCO)CCCOc1ccc2c(Nc3cc(CC(=O)Nc4cccc(F)c4)[nH]n3)ncnc2c1 [AZD1152-HQPA] | – | – | reduced clonogenic survival; also recorded: increased Aurora B inhibitor sensitivity | Very similar results |
